Assay results: patent EP0336356A2, “Derivatives of tryptophan as CCK antagonists” (ABBOTT LABORATORIES, priority 1988, dated 1989)

Tests used:
[1] = molecular target: T1, CCK receptors (Cavia porcellus, UniProt Q63931); test: Inhibition of CCK8-stimulated amylase release from guinea pig pancreatic acini; format: cell-based; conditions: reference concentration for CCK₈ 3x10⁻¹⁰M, 37°C, 30 min, read-out: IC₅₀ (nM) Inhibition of Amylase Release
T1 construct: cortex and pancreas were removed and rinsed with ice-cold saline; from tissue; host or cells: guinea pig pancreas membranes
T1 sequence (Q63931 1-430): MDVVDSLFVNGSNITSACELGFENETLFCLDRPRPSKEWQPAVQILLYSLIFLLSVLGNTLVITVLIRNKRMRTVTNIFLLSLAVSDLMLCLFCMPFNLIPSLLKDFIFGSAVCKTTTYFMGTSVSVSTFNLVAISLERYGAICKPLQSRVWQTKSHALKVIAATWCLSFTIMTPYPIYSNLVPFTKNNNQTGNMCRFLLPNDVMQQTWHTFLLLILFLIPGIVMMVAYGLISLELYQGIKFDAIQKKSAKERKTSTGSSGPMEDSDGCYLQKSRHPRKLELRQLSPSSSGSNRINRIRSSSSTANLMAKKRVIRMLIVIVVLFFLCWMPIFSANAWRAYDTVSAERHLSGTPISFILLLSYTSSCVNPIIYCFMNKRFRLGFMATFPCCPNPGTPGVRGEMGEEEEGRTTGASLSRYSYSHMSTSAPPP
Protocol: This assay was performed using the modified protocol of Lin et al., J. Pharmacol Exp. Ther. 236, 729-734, 1986. Guinea pig acini were prepared by the method of Bruzzone et al. (Biochem. J. 226, 621-624, 1985) as follows. Pancreas was dissected out and connective tissues and blood vessels were removed. […] The composition of the KRH buffer was: HEPES, 12.5 mM: NaCl, 118 mM; […] CaCl₂, 1 mM; KH₂PO₄, 1.2 mM; MgSO₄, 1.2 mM; NaHCO₃, 5 mM; glucose, 10 mM, pH 7.4. The buffer was supplemented with 1% MEM vitamins, 1% MEM amino acids and 0.001% aprotinin. The tube was shaken by hand until the suspension appeared homogeneous, usually 5 to 6 min. 5 mL of the KRH, without collagenase and with 0.1% BSA, were added and the tube was centrifuged at 50 x g for 35 sec. The supernatant was discarded and 6 mL of the KRH were added to the cell pellet. […] This wash procedure was repeated once. The cell pellet from the last centrifugation step was then resuspended in 15 mL of KRH containing 0.1% BSA. The contents were filtered through a dual nylon mesh, size 275 and 75 um. The filtrate, containing the acini, were centrifuged at 50 x g for 3 min. The acini were then resuspended in 5 mL of KRH-BSA buffer for 30 min at 37°C, under 100% O₂, with a change of fresh buffer at 15 min. After the 30 min incubation time, the acini were resuspended in 100 volumes of KRH-BSA buffer, containing 3 uM phosphoramidon and 100 µM bestatin. […] The final assay volume was 500 uL. Tubes were vortexed and placed in a 37°C waterbath, under 100% O₂, for 30 min. Afterward, tubes were centrifuged at 10,000 g for 1 min. Amylase activity in the supernatant and the cell pellet were separately determined after appropriate dilutions in 0.1% Triton X-100, 10 mM NaH₂PO₄, pH 7.4 by Abbott Amylase A-gent test using the Abbott Bichromatic Analyzer 200. […]

[2] = molecular target: T1, CCK receptors; test: [125I]BH-CCK8 radioligand binding, guinea pig pancreatic membranes; conditions: 37°C for 30 min, read-out: IC₅₀ (nM) [¹²⁵I]-BH-CCK₈ Pancreas
[3] = molecular target: T2, CCK receptors (Cavia porcellus, UniProt H0VZC5); test: [125I]BH-CCK8 radioligand binding, guinea pig cerebral cortical membranes; conditions: 30°C for 150 min, read-out: IC₅₀ (nM) [¹²⁵I]-BH-CCK₈ Cortex
T2 construct: cortex and pancreas were removed and rinsed with ice-cold saline; from tissue; host or cells: guinea pig cerebral cortex membranes
T2 sequence (H0VZC5 1-426): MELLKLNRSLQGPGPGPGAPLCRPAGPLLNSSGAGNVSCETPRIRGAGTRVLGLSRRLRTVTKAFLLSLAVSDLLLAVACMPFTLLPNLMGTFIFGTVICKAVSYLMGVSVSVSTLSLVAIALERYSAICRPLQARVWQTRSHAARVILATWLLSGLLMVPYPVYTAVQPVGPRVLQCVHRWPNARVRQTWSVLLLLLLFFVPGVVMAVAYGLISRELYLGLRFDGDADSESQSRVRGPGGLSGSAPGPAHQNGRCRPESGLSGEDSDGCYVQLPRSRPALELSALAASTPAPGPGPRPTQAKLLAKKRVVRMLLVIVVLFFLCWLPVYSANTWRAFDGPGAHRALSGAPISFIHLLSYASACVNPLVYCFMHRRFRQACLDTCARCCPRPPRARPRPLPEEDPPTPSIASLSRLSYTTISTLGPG

[4] = tested on: CCK receptors; test: Antagonism of CCK mediated behavioral effect in mice (reversal of CCK-induced inactivity); format: in vivo; conditions: minimally effective dose, ICV, coadministered with CCK₈ 3 nmol, male Swiss CD-1 mice, statistically significant reversal of CCK-induced inactivity
From the text: Male Swiss CD-1 mice (Charles River) (22-27 g) were provided with ample food (Purina Lab (show) and water until the time of their injection with the test compound.
ICV injections were given by a free-hand method similar to that previously described (Haley, and McCormick, Br. J. Pharmacol. Chemother. 12 12-15 (1957)). The animals were placed on a slightly elevated metal grid and restrained by the thumb and forefinger at the level of the shoulders, thus immobilizing their heads. Injections were made with a 30 gauge needle with a "stop" consisting of a piece of tygon tubing to limit penetration of the needle to about 4.5 mm below the surface of the skin. The needle was inserted perpendicular to the skull at a midline point equidistant from thje eye and an equal distance posterior from the level of the eyes such that the injection site and the two eyes form an equilateral triangle. The injection volme (5 ul) was expelled smoothly over a period of approximately 1 second. […]
For the behavioral observations, the mice were placed in clear plastic cages. Each cage measured 19 x 26 x 15 centimeters and contained a 60-tube polypropylene test tube rack (NALGENE #5970-0020) placed on end in the center of the cage to enhance exploratory activity. […] Differences among groups were analyzed by Newman-Kewels analysis and a probability level of p<0.05 was accepted as significant. […]

With `CCCCCN(CCCCC)C(=O)[C@@H](Cc1c[nH]c2ccccc12)NC(=O)c1cnc2ccccc2c1` [Example 21, N-(3′-Quinolylcarbonyl)-R-Tryptophan-di-n-pentylamide] the IC50 [1] was 42 nM, the IC50 [2] was 14 nM and the IC50 [3] was 15000 nM. For the same compound, the MED [4] was 0.3 nmol.
`CCOC(=O)CN(Cc1ccccc1)C(=O)[C@@H](Cc1c[nH]c2ccccc12)NC(=O)c1cnc2ccccc2c1` [Example 29, Ethyl N-(3′-Quinolylcarbonyl)-R-Tryptophyl-(N-benzyl)Glycinate] was tested, and the IC50 [1] was < 10000 nM, the IC50 [2] was 88 nM and the IC50 [3] was 9200 nM.
In the case of `COC(=O)[C@H](NC(=O)C(Cc1c[nH]c2ccccc12)NC(=O)c1cnc2ccccc2c1)c1ccccc1` (stereo partly shown) [Example 31, Methyl N-(3′-Quinolylcarbonyl)-Tryptophyl-R-Phenylglycinate], the IC50 [1] is reported as < 100000 nM, the IC50 [2] is reported as 300 nM and the IC50 [3] is reported as > 10000 nM.
With `COC(=O)[C@@H](NC(=O)C(Cc1c[nH]c2ccccc12)NC(=O)c1cnc2ccccc2c1)c1ccccc1` (stereo partly shown) [Example 32, Methyl N-(3′-Quinolylcarbonyl)-Tryptophyl-S-Phenylglycinate] the IC50 [1] was < 30000 nM, the IC50 [2] was 120 nM and the IC50 [3] was > 10000 nM.
With `CN(Cc1ccccc1)C(=O)C(Cc1c[nH]c2ccccc12)NC(=O)c1cnc2ccccc2c1` (stereo not shown) [Example 33, N-(3′-Quinolylcarbonyl)-Tryptophan-(N-methyl,N-benzyl)amide] the IC50 [1] was < 30000 nM, the IC50 [2] was 530 nM and the IC50 [3] was 10000 nM.
With `C[C@H](NC(=O)[C@@H](Cc1c[nH]c2ccccc12)NC(=O)c1cnc2ccccc2c1)c1ccccc1` [Example 36, N-(3′-Quinolylcarbonyl)-R-Tryptophan-(1′,S-phenylethyl)amide] the IC50 [1] was < 10000 nM, the IC50 [2] was 380 nM and the IC50 [3] was > 10000 nM.
For `C[C@@H](NC(=O)[C@@H](Cc1c[nH]c2ccccc12)NC(=O)c1cnc2ccccc2c1)c1ccccc1` [Example 39, N-(3′-Quinolylcarbonyl)-R-Tryptophan-(1′,R-phenylethyl)amide], the IC50 [1] was < 10000 nM, the IC50 [2] was 110 nM and the IC50 [3] was > 10000 nM.
In the case of `O=C(NC(Cc1c[nH]c2ccccc12)C(=O)N1CCC2CCCCC2C1)c1cnc2ccccc2c1` (stereo not shown) [Example 40, N-(3′-Quinolylcarbonyl)-Tryptophan-perhydroisoquinolylamide], the IC50 [1] is reported as < 100000 nM, the IC50 [2] is reported as 1000 nM and the IC50 [3] is reported as 10000 nM.
With `CCCCCN(CCCCC)C(=O)[C@H](Cc1c[nH]c2ccccc12)NC(=O)c1cnc2ccccc2c1` [Example 100, N-(3′-Quinolylcarbonyl)-S-Tryptophan-di-n-pentylamide] the IC50 [1] was < 100000 nM, the IC50 [2] was 670 nM and the IC50 [3] was 6300 nM.
